Test results published in US8202886B2, “Small molecule E2F inhibitor” (H. Lee Moffitt Cancer Center and Research Institute, Inc., priority 2008, dated 2012).
Where two headings read alike, the source gives them in different places.

Columns and labels:
MCF7 cells = assay: RNase protection assay, MCF7; assay type: cell-based, human
Description: (§1) The indicated breast cancer lines were treated with 40 micromolar the therapeutic compound and subjected RNAse protection assay 24 hrs later using the indicated probes.
(§2) An RNase protection assay was performed to determine if downregulation of the Rb family members at the level of mRNA could account for the downregulation of the proteins. Two breast cancer cell lines were examined at 0, 3, 6, 9, 18 and 24 hr following the therapeutic compound treatment (FIG. 21).

A375 cells = assay: MTS proliferation/viability over time; assay type: cell-based, human; conditions: 40 μM, 24-, 48- and 72-hrs
Description: To examine its effect on a range of commonly studied cell lines, the inventors utilized standard MTS assays to quantify cell viability following the therapeutic compound treatment. Cytotoxicity was determined using MTS assays, which were conducted using a CellTiter 96® AQueous One Cell Proliferation Assay Kit (Promega) following the published protocol. […] Plates were read at 490 nm following 4 hrs MTS reaction time. The concentration of drug which produced a 50% inhibition of growth (IC50) was calculated from linear regression analysis of the linear portion of the growth curves.

[1] = tested on: 8226-s, 8226-dox40 and 8226-MR20; assay: PARP cleavage western in drug sensitive and resistant 8226 lines; assay type: cell-based, human; conditions: 24 hours; 10 μM cisplatin or 10, 20 or 40 μM HLM006474
Description: (§3) Cells were collected 24 hours post drug exposure and extracts subjected to western blotting using antibodies to the indicated proteins. Cleavage of PARP indicates apoptosis.

lung cancer cell lines = assay: CT Blue Viability Assay, drug combinations; assay type: cell-based; conditions: combination with taxol
Description: The indicated lung cancer cell lines were exposed to taxol, cisplatin, or gemacitabine alone, the therapeutic compound alone, or a combination as indicated. These experiments and analysis were performed in the Experimental Therapeutics Core using the CT Blue Viability Assay.

E2F4-deficient MEFs = assay: Apoptosis (ApoBrdU, PARP western) in E2F4-deficient MEFs; assay type: cell-based, mouse
Description: FIG. 12A: MEFS derived from sibling WT and E2F4^−/− mice were treated for 24-hrs with the indicated doses of HLM006474. Apoptosis was determined using ApoBrdU (BD Pharmingen).
FIG. 12B: MEFS derived from sibling WT and E2F4^−/− mice were treated as in A subjected to western blotting using a PARP antibody or E2F4 antibody. PARP cleavage (as indicated by the arrow) is an independent measure of apoptosis.
To determine if the effect of the therapeutic compound is dependent upon E2F4, the inventors compared the therapeutic compound response of immortalized MEFs derived from E2F4-deficient mice with MEFS derived from wildtype siblings.

8226-s = assay: MTS viability assay, 8226-s; assay type: cell-based; conditions: Homo sapiens; 8226-s parental
Description: as §3
(§4) To examine its effect on a range of commonly studied cell lines, the inventors utilized standard MTS assays to quantify cell viability following the therapeutic compound treatment. Cytotoxicity was determined using MTS assays, which were conducted using a CellTiter 96® AQueous One Cell Proliferation Assay Kit (Promega) following the published protocol. Cells in 0.1 ml volume were plated in triplicate into 96-well plates, 1×10^4 cells/well. the therapeutic compound was added and after 24 hours of incubation at 37° C., 20 μl of MTS dye was added to each well. Plates were read at 490 nm following 4 hrs MTS reaction time. The concentration of drug which produced a 50% inhibition of growth (IC50) was calculated from linear regression analysis of the linear portion of the growth curves.

NCI60 cell lines = assay: NCI60 drug screen; assay type: cell-based; conditions: NCI standard concentration
Excerpt: FIG. 16: HLM006474 was submitted to the National Cancer Institutes Developmental Therapeutic Program NCI60 Drug Screening Program. […] Results are reported as mean growth percent less growth percent.
The therapeutic compound was submitted to the NCI60 drug screen.

8226-MR20 = assay: MTS viability assay, 8226-MR20; assay type: cell-based; conditions: Homo sapiens
Description: as §3, §4

231 cells = assay: RNase protection assay, 231; assay type: cell-based, human
Description: as §1, §2

E2F4 [2] = biological target: T1, E2F4 (Homo sapiens, UniProt Q16254); assay: Whole-membrane E2F4 western for cleavage products; assay type: cell-based; design: endogenous in cells; conditions: 40 uM
Target sequence in this assay (Q16254 whole entry): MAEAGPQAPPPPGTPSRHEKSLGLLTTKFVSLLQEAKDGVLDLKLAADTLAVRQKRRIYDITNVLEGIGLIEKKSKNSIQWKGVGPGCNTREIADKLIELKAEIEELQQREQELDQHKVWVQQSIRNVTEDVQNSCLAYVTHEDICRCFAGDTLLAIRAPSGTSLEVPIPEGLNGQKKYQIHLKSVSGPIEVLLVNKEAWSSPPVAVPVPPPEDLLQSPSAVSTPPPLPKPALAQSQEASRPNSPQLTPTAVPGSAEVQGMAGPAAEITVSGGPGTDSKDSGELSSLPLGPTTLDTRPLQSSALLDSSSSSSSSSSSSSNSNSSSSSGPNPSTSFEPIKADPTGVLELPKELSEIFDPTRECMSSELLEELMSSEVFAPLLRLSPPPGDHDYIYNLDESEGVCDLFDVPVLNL
Description: The indicated cell lines were treated with 40 micromolar the therapeutic compound and subjected to western blotting 24 hrs later. In this case, the entire lanes were subjected to western blot with an E2F4 antibody in order to detect potential immunoreactive truncation products.
For this experiment cells were treated with 40 uM the therapeutic compound and were subjected to western blotting. However, rather than cut the western membrane into three pieces (to probe simultaneously for three proteins of different sizes) the entire membrane was used to reveal smaller immunoreactive bands.

NSCLC lines = assay: Western blots of cell cycle proteins in NSCLC lines; assay type: cell-based; conditions: every cell line treated, 40 micromolar, 24 hrs
Description: The indicated NSCLC lines were treated with 40 micromolar the therapeutic compound and subjected western blotting 24 hrs later using the indicated antibodies.

H292 = assay: Western blots of treated H292 cells; assay type: cell-based
Description: In order to further examine the mechanism of action of the therapeutic compound four lung cancer cell lines were treated with various concentrations of drug and western blots performed on cell extracts after 24 hr.

E2F4 [3] = biological target: T1, E2F4; assay: E2F4 DNA-binding EMSA on whole cell extracts of treated A375 cells; assay type: cell-based; conditions: for effect on E2F4 DNA-binding activity: 9-hrs
Description: Whole cell extracts of treated cells were prepared and the DNA-binding activity of E2F4 measured by EMSA.
PhosphoImager EMSA signals from four independent experiments were quantified using ImageQuant and the results are graphed in FIG. 10B. The apparent IC50 (drug concentration required to reduce total E2F4 DNA-binding activity by 50% of untreated cells was calculated using the Statistical Analysis System (Proc Probit)).
To determine the activity of the therapeutic compound over time, A375 cells were treated with 40-μM of compound and examined at 0-, 3-, 6-, 9-, 12-, 18- and 24-hrs by EMSA and western (FIG. 11A).
Quantitative EMSA assays were performed in triplicate.
Target sequence in this assay (Q16254 2-413 limits assumed): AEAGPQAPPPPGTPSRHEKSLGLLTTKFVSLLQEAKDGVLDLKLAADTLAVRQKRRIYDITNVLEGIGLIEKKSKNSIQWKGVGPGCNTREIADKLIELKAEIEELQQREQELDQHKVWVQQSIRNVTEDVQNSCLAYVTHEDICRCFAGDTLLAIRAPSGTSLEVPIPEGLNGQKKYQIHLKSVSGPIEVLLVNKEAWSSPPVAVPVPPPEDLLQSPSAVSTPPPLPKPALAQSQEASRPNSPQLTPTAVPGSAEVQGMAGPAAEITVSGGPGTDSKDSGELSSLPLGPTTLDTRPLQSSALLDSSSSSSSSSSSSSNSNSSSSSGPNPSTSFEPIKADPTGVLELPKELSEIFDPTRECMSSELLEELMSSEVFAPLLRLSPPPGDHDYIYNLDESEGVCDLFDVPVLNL
Target sequence in this assay (Q14186 whole entry partner): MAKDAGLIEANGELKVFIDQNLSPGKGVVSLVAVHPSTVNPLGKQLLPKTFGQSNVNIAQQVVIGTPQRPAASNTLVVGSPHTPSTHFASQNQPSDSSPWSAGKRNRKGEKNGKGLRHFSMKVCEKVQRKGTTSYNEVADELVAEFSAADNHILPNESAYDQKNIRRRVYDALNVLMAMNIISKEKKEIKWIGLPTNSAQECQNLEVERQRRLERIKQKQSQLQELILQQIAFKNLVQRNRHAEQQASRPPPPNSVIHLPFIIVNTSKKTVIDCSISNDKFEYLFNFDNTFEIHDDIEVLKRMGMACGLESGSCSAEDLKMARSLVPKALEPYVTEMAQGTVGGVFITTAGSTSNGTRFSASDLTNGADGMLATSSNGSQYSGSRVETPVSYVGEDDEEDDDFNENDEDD

breast cancer cell lines = assay: Western blots of Rb family members in breast cancer cell lines; assay type: cell-based; conditions: 40 micromolar, 24 hrs

E2F4 immunoreactive truncation product (E2F4 [2]): appearance of a 40 kD band
effect on E2F4 DNA-binding activity (E2F4 [3]; 10 and 20-μM): limited effect
reduction of E2F4 activity (E2F4 [3]; 40-μM drug, expected from dose response): 50-75%
effect on E2F4 DNA-binding activity (E2F4 [3]; 40-μM): inhibition is clearly apparent
IC50 (E2F4 [3]; A375 cells treated 9-hrs, EMSA, Proc Probit, read-out: IC50 (drug concentration required to reduce total E2F4 DNA-binding activity by 50% of untreated cells)): 29.8 µM
IC50 (E2F4 [3]; as restated for the NCI60 screen, read-out: known IC50): 30 µM
time at which inhibition of E2F4 DNA-binding activity became apparent (E2F4 [3]; single 40-μM dose): 9 h
Compound: CCOc1ccc(C(Nc2ccccn2)c2ccc3ccc(C)nc3c2O)cc1C (stereo not drawn) [HLM006474]
Rb at the mRNA level (MCF7 cells; MCF7): no significant change
p21 mRNA (MCF7 cells; MCF7): upregulated
mRNA for p107 (MCF7 cells; MCF7, 0-24 hr): repressed
cellular proliferation/viability (MTS) (A375 cells): significantly affected
PARP cleavage (apoptosis) in sensitive versus resistant lines [1]: very similar
synergy with taxol (lung cancer cell lines): synergizes significantly
sensitivity of E2F4 knockout MEFs versus cells from littermate animals (E2F4-deficient MEFs): less sensitive
concentration required to detect PARP cleavage (E2F4-deficient MEFs; E2F4-deficient MEFs): 60 µM
IC50 (8226-s): 36 ± 6 µM
growth inhibition in NCI60 cell lines (NCI60 cell lines): significantly growth inhibited
IC50 (8226-MR20): 46 ± 6 µM
Rb at the mRNA level (231 cells): no significant change
p21 mRNA (231 cells): upregulated
Rb (western) (NSCLC lines): down (at least modestly)
Mcl-1 (western) (H292; H292, 40-μM): downregulation of Mcl-1
sensitivity (downregulation of E2F1 and E2F4, PARP cleavage) (H292; H292, various concentrations, 24 hr): limited sensitivity
Rb and p107 proteins (western) (breast cancer cell lines): dramatically down regulated
